Measured values published in US9018395B2, “Pyrazolopyridine and pyrazolopyrimidine derivatives as melanocortin-4 receptor modulators” (Université de Montréal, priority 2011, dated 2015).

These compounds were tested against T1, wild-type human melanocortin 4 receptor (WT-hMC4R) (Homo sapiens, UniProt P32245) (assay: Cyclic AMP assay (HTRF), antagonist competition against NDP-α-MSH). Conditions: HEK293T cells expressing double-tagged WT-hMC4R; cAMP accumulation; 1 hour compound then 4 nM NDP-α-MSH 30 min.
T1 construct: expressed in transfected cells; cDNA from UMR cDNA resource center
T1 sequence (P32245 whole entry): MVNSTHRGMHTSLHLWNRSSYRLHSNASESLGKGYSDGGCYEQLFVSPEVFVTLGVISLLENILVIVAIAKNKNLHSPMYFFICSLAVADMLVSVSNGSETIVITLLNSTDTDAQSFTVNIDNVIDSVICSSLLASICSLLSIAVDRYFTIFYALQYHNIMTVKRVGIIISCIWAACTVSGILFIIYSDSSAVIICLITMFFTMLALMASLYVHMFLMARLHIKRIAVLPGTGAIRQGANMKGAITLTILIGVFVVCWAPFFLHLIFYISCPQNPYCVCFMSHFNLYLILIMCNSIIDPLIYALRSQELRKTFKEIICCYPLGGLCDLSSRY
Format: cell-based
Protocol: Intracellular cyclic 3′-5′ adenosine monophosphate (cAMP) accumulation was measured using a competitive immunoassay based on HTRF (Homogeneous Time-Resolved Fluorescence) technology (cAMP dynamic-2, Cis-Bio).
HEK293T stable cell line expressing double-tagged WT-hMC4R construct were collected and washed in cAMP buffer (1XD-PBS pH 7.4, 0.1% glucose). 40,000 cells/well were then dispensed in 96-well plates in cAMP buffer [1XD-PBS, 1% BSA, 0.1% Glucose, 0.75 mM 3-isobutyl-1methyl-xanthine (IBMX, Sigma)] and incubated either for antagonist competition assay: 1 hour at 37° C. with various concentrations of compound [0.01 nM-10 μM] followed by 30 min incubation at 37° C. with 4 nM of NDP-α-MSH (Sigma) or for agonist assay: 1 hour at 37° C. with various concentrations of compound [0.01 nM-10 μM]. 10,000 cells were transferred in 384-well plates, lysed and incubated with cAMP labeled with the dye d2 and anti-cAMP M-Antibody labeled with Cryptate following the manufacturer's protocol.
Reading of HTRF signal was performed on Artemis TR-FRET plate reader (Cosmo Bio).
All curve fitting was conducted using non-linear regression analyses from PRISM (version 4.0c, GraphPad Inc.) and the determination of Rmax and EC50 or IC50 parameters were obtained from sigmoidal dose-response phase (variable slope) equation.
A cDNA encoding a wild-type human MC4R with a 3 tandem copies of Hemaglutinine (HA) epitote sequence from UMR cDNA resource center was modified using known techniques in the art (e.g., PCR, cloning) to fused in frame at the C-terminal a venus-Yellow Fluorescent Protein (YFP) cDNA.
The resultant cDNA was then subcloned in eukaryotic expression vector, e.g. pcDNA 3.1(+) (Invitrogen).
The double tagged WT-hMC4R was transfected in HEK293T cells with lipofectamine (Invitrogen) following the manufacturer's instructions and permanently transfected clonal cell lines were selected by resistance to the neomycin analog G418.
HEK293T stable cell line expressing wild-type human melanocortin 4 receptor (WT-hMC4R) containing an N-terminal 3xHA epitope tag and an intracellular C-terminal venus-yellow fluorescent protein (v-YFP) were maintained at 37° C. in humidified air containing 5% CO2 in Dulbecoo's modified Eagle's medium (DMEM) supplemented with 10% fetal bovine serum (FBS), 100 U/ml penicillin/streptomycin (DMEM complete/10% FBS). Cells were generally at 70%-80% confluence on the day of assay.
In the case of `CCCCN(CCCC)C(=O)c1ccn2nc(-c3ccc(F)cc3)c(/C=C/CN3CCCCC3)c2c1` [Example 51], the IC50 is reported as 1 to 5 µM.
Compound `CC(C)CCN(CCC(C)C)C(=O)c1ccn2nc(-c3ccc(F)cc3)c(/C=C/CN3CCCCC3)c2c1` [Example 52] has an IC50 of 0.5 to 1 µM.
For `CCCCCN(CCCCC)C(=O)c1ccn2nc(-c3ccc(F)cc3)c(/C=C/CN3CCCCC3)c2c1` [Example 53], the IC50 was 1 to 5 µM.
In the case of `CCCCN(CCCC)C(=O)c1ccn2nc(-c3ccccc3)c(CCCN3CCCCC3)c2c1` [Example 54], the IC50 is reported as 0.5 to 1 µM.
`CC(C)CCN(CCC(C)C)C(=O)c1ccn2nc(-c3ccccc3)c(CCCN3CCCCC3)c2c1` [Example 55] was tested, and the IC50 was 1 to 5 µM.
`CCCCCN(CCCCC)C(=O)c1ccn2nc(-c3ccccc3)c(CCCN3CCCCC3)c2c1` [Example 56] showed an IC50 of 0.5 to 1 µM.
Work on `CCCCN(CCCC)C(=O)c1ccn2nc(-c3ccccc3)c(/C=C/CN3CCCCC3)c2c1` [Example 57] yielded an IC50 of 1 to 5 µM.
Work on `CC(C)CCN(CCC(C)C)C(=O)c1ccn2nc(-c3ccccc3)c(/C=C/CN3CCCCC3)c2c1` [Example 58] yielded an IC50 of 0.5 to 1 µM.
Work on `CCCCCN(CCCCC)C(=O)c1ccn2nc(-c3ccccc3)c(/C=C/CN3CCCCC3)c2c1` [Example 59] yielded an IC50 of 1 to 5 µM.
`CCCCN(CCCC)C(=O)c1ccn2nc(-c3ccc(C)cc3)c(CCCN3CCCCC3)c2c1` [Example 60] showed an IC50 of 0.5 to 1 µM.
With `Cc1ccc(-c2nn3ccc(C(=O)N(CCC(C)C)CCC(C)C)cc3c2CCCN2CCCCC2)cc1` [Example 61] the IC50 was < 0.5 µM.
`CCCCCN(CCCCC)C(=O)c1ccn2nc(-c3ccc(C)cc3)c(CCCN3CCCCC3)c2c1` [Example 62] showed an IC50 of 1 to 5 µM.
Compound `CCCCN(CCCC)C(=O)c1ccn2nc(-c3ccc(C)cc3)c(/C=C/CN3CCCCC3)c2c1` [Example 63] has an IC50 of 0.5 to 1 µM.
For `Cc1ccc(-c2nn3ccc(C(=O)N(CCC(C)C)CCC(C)C)cc3c2/C=C/CN2CCCCC2)cc1` [Example 64], the IC50 was < 0.5 µM.
For `CCCCCN(CCCCC)C(=O)c1ccn2nc(-c3ccc(C)cc3)c(/C=C/CN3CCCCC3)c2c1` [Example 65], the IC50 was 1 to 5 µM.
In the case of `CCCCN(CCCC)C(=O)c1ccn2nc(-c3cc(OC)c(OC)c(OC)c3)c(CCCN3CCCCC3)c2c1` [Example 66], the IC50 is reported as 0.5 to 1 µM.
For `COc1cc(-c2nn3ccc(C(=O)N(CCC(C)C)CCC(C)C)cc3c2CCCN2CCCCC2)cc(OC)c1OC` [Example 67], the IC50 was < 0.5 µM.
In the case of `CCCCCN(CCCCC)C(=O)c1ccn2nc(-c3cc(OC)c(OC)c(OC)c3)c(CCCN3CCCCC3)c2c1` [Example 68], the IC50 is reported as 0.5 to 1 µM.
With `CCCCN(CCCC)C(=O)c1ccn2nc(-c3cc(OC)c(OC)c(OC)c3)c(/C=C/CN3CCCCC3)c2c1` [Example 69] the IC50 was 0.5 to 1 µM.
With `COc1cc(-c2nn3ccc(C(=O)N(CCC(C)C)CCC(C)C)cc3c2/C=C/CN2CCCCC2)cc(OC)c1OC` [Example 70] the IC50 was < 0.5 µM.
Compound `CCCCCN(CCCCC)C(=O)c1ccn2nc(-c3cc(OC)c(OC)c(OC)c3)c(/C=C/CN3CCCCC3)c2c1` [Example 71] has an IC50 of 1 to 5 µM.
For `CC(C)CCN(CCC(C)C)C(=O)c1ccn2nc(-c3cccc(Cl)c3)c(/C=C/CN3CCCCC3)c2c1` [Example 72, (E)-2-(3-chlorophenyl)-N,N-diisopentyl-3-(3-(piperidin-1-yl)prop-1-en-1-yl)pyrazolo[1,5-a]pyridine-5-carboxamide], the IC50 was 0.5 to 1 µM.
`CC(C)CCN(CCC(C)C)C(=O)c1ccn2nc(-c3cccc(C(=O)O)c3)c(/C=C/CN3CCCCC3)c2c1` [Example 73] gave an IC50 of 1 to 5 µM.
With `CC(C)CCN(CCC(C)C)C(=O)c1ccn2nc(-c3cccc(C(=O)O)c3)c(CCCN3CCCCC3)c2c1` [Example 74] the IC50 was 1 to 5 µM.
With `CC(C)CCN(CCC(C)C)C(=O)c1ccn2nc(-c3ccc(C(=O)O)cc3)c(CCCN3CCCCC3)c2c1` [Example 75] the IC50 was 1 to 5 µM.
For `CC(C)CCN(CCC(C)C)C(=O)c1ccn2nc(-c3ccc(OCc4ccccc4)cc3)c(/C=C/CN3CCCCC3)c2c1` [Example 76], the IC50 was 1 to 5 µM.
With `CC(C)CCN(CCC(C)C)C(=O)c1ccn2nc(-c3cccc(C(N)=O)c3)c(/C=C/CN3CCCCC3)c2c1` [Example 77] the IC50 was < 0.5 µM.
With `CC(C)CCN(CCC(C)C)C(=O)c1ccn2nc(-c3ccc(O)cc3)c(CCCN3CCCCC3)c2c1` [Example 78] the IC50 was < 0.5 µM.
For `CCOc1ccc(-c2nn3ccc(C(=O)N(CCC(C)C)CCC(C)C)cc3c2/C=C/CN2CCC(F)(F)CC2)cc1` [Example 79], the IC50 was 5 to 15 µM.
For `CCOc1ccc(-c2nn3ccc(C(=O)N(CCC(C)C)CCC(C)C)cc3c2CCCN2CCC(F)(F)CC2)cc1` [Example 80], the IC50 was 5 to 15 µM.
`CCOc1ccc(-c2nn3ccc(C(=O)N(CCC(C)C)CCC(C)C)cc3c2/C=C/CN2CCC(C(F)(F)F)CC2)cc1` [Example 81] gave an IC50 of 5 to 15 µM.
With `CCOc1ccc(-c2nn3ccc(C(=O)N(CCC(C)C)CCC(C)C)cc3c2CCCN2CCC(C(F)(F)F)CC2)cc1` [Example 82] the IC50 was 5 to 15 µM.
For `CC(C)CCN(CCC(C)C)C(=O)c1ccn2nc(-c3cccc(Cl)c3)c(CCCN3CCCCC3)c2c1` [Example 83, 2-(3-Chlorophenyl)-N,N-diisopentyl-3-(3-(piperidin-1-yl)propyl)pyrazolo[1,5-a]pyridine-5-carboxamide], the IC50 was < 0.5 µM.
`COc1cc(OC)cc(-c2nn3ccc(C(=O)N(CCC(C)C)CCC(C)C)cc3c2/C=C/CN2CCCCC2)c1` [Example 84] was tested, and the IC50 was < 0.5 µM.
`CCCCN(CCCC)C(=O)c1ccn2nc(-c3cc(OC)cc(OC)c3)c(/C=C/CN3CCCCC3)c2c1` [Example 85] showed an IC50 of 0.5 to 1 µM.
With `COc1cc(OC)cc(-c2nn3ccc(C(=O)N(CCC(C)C)CCC(C)C)cc3c2CCCN2CCCCC2)c1` [Example 86] the IC50 was < 0.5 µM.
`CCCCN(CCCC)C(=O)c1ccn2nc(-c3cc(OC)cc(OC)c3)c(CCCN3CCCCC3)c2c1` [Example 87] gave an IC50 of 1 to 5 µM.
With `COc1ccc(-c2nn3ccc(C(=O)N(CCC(C)C)CCC(C)C)nc3c2/C=C/CN2CCCCC2)cc1` [Example 88, (E)-N,N-Diisopentyl-2-(4-methoxyphenyl)-3-(3-(piperidin-1-yl)prop-1-en-1-yl)pyrazolo[1,5-a]pyrimidine-5-carboxamide] the IC50 was 1 to 5 µM.
In the case of `CC(C)CCN(CCC(C)C)C(=O)c1ccn2nc(-c3cccc(C(N)=O)c3)c(CCCN3CCCCC3)c2c1` [Example 90], the IC50 is reported as < 0.5 µM.
`CC(C)CCN(CCC(C)C)C(=O)c1ccn2nc(-c3ccc(C(N)=O)cc3)c(/C=C/CN3CCCCC3)c2c1` [Example 91] gave an IC50 of 0.5 to 1 µM.
With `CC(C)CCN(CCC(C)C)C(=O)c1ccn2nc(-c3cccc(C#N)c3)c(CCCN3CCCCC3)c2c1` [Example 92] the IC50 was < 0.5 µM.
`CC(C)CCN(CCC(C)C)C(=O)c1ccn2nc(-c3ccc(Br)cc3)c(/C=C/CN3CCOCC3)c2c1` [Example 93] showed an IC50 of 5 to 15 µM.
In the case of `CC(C)CCN(CCC(C)C)C(=O)c1ccn2nc(-c3cccc(-c4nnn[nH]4)c3)c(CCCN3CCCCC3)c2c1` [Example 94], the IC50 is reported as 0.5 to 1 µM.
`CC(C)CCN(CCC(C)C)C(=O)c1ccn2nc(-c3ccc(C(N)=O)cc3)c(CCCN3CCCCC3)c2c1` [Example 95] was tested, and the IC50 was < 0.5 µM.
`CC(C)CCN(CCC(C)C)C(=O)c1ccn2nc(-c3ccc(C#N)cc3)c(CCCN3CCCCC3)c2c1` [Example 96] was tested, and the IC50 was < 0.5 µM.
`COc1ccc(Cl)cc1-c1nn2ccc(C(=O)N(CCC(C)C)CCC(C)C)cc2c1C#CCCN1CCCCC1` [Example 97] gave an IC50 of 1 to 5 µM.
`CC(C)CCN(CCC(C)C)C(=O)c1ccn2nc(-c3ccc(-c4nnn[nH]4)cc3)c(CCCN3CCCCC3)c2c1` [Example 98] gave an IC50 of 1 to 5 µM.
`COc1ccc(-c2nn3ccc(C(=O)N(CCC(C)C)CCC(C)C)nc3c2/C=C/CN2CCCC2)cc1` [Example 99] showed an IC50 of 1 to 5 µM.
`CCN(CC)C/C=C/c1c(-c2ccc(OC)cc2)nn2ccc(C(=O)N(CCC(C)C)CCC(C)C)nc12` [Example 100] gave an IC50 of 5 to 15 µM.
`COc1ccc(Cl)cc1-c1nn2ccc(C(=O)N(CCC(C)C)CCC(C)C)cc2c1C#CCN1CCCCC1` [Example 101] was tested, and the IC50 was < 0.5 µM.
For `CC(C)CCN(CCC(C)C)C(=O)c1ccn2nc(-c3ccc(/C(N)=N/O)cc3)c(CCCN3CCCCC3)c2c1` [Example 102], the IC50 was < 0.5 µM.
Compound `CC(C)CCN(CCC(C)C)C(=O)c1ccn2nc(-c3ccc(-c4noc(=O)[nH]4)cc3)c(CCCN3CCCCC3)c2c1` [Example 103] has an IC50 of 0.5 to 1 µM.
Compound `COc1ccc(-c2nn3ccc(C(=O)N(CCC(C)C)CCC(C)C)nc3c2CCCN2CCCC2)cc1` [Example 104] has an IC50 of 5 to 15 µM.
In the case of `CCN(CC)CCCc1c(-c2ccc(OC)cc2)nn2ccc(C(=O)N(CCC(C)C)CCC(C)C)nc12` [Example 105], the IC50 is reported as 5 to 15 µM.
`COc1ccc(-c2nn3ccc(C(=O)N(CCC(C)C)CCC(C)C)cc3c2/C=C/CN2CCCCCC2)cc1` [Example 106] showed an IC50 of 1 to 5 µM.
`CC(=O)O/N=C(\N)c1ccc(-c2nn3ccc(C(=O)N(CCC(C)C)CCC(C)C)cc3c2CCCN2CCCCC2)cc1` [Example 107] was tested, and the IC50 was < 0.5 µM.
